Assays:
K562 = assay: Cytotoxicity against human K562 cells assessed as cell growth inhibition incubated for 72 hrs by MTT assay; type: functional, cell-based; settings: K562, 72 h
MCF7 = assay: Cytotoxicity against human MCF7 cells assessed as cell growth inhibition incubated for 72 hrs by MTT assay; type: functional, cell-based; settings: MCF7, 72 h
Salmon testes DNA = assay: Displacement of methyl green from salmon sperm DNA assessed as DNA intercalation at 10 uM incubated for 24 hrs by fluorescence plate reader method relative to control; type: nucleic-acid assay; settings: Salmo salar
[1] = Cytotoxicity against human HCT116-p53-null cells assessed as cell growth inhibition incubated for 72 hrs by MTT assay; type: functional, cell-based
KB 3-1 = assay: Cytotoxicity against human KB 3-1 cells assessed as cell growth inhibition incubated for 72 hrs by MTT assay; type: functional, cell-based; settings: KB 3-1, 72 h
[2] = Cytotoxicity against mouse J774.2 cells assessed as cell growth inhibition incubated for 72 hrs by MTT assay; type: toxicity, cell-based
HCT-116 = assay: Cytotoxicity against human HCT-116 cells assessed as cell growth inhibition incubated for 72 hrs by MTT assay; type: functional, cell-based; settings: HCT-116, 72 h
[3] = GSH reactivity of compound at pH 7.4 phosphate buffer assessed as GSH-adduct formation at 1 mM incubated for 1 hr by spectrophotometric analysis; type: physicochemical; settings: pH 7.4, 1 h, 1000 µM
[4] = GSH reactivity of compound at pH 7.4 phosphate buffer assessed as GSH-adduct formation at 1 mM incubated for 1 hr in presence of sodium borohydride by spectrophotometric analysis; type: physicochemical; settings: pH 7.4, 1 h, 1000 µM
SF-539 = assay: Anticancer activity against human SF-539 cells assessed as cell growth at 10 uM incubated for 48 hrs by sulforhodamine B assay; type: functional; settings: read-out: Activity
UO-31 = assay: Anticancer activity against human UO-31 cells assessed as cell growth at 10 uM incubated for 48 hrs by sulforhodamine B assay; type: functional; settings: read-out: Activity
CAKI-1 = assay: Anticancer activity against human CAKI-1 cells assessed as cell growth at 10 uM incubated for 48 hrs by sulforhodamine B assay; type: functional; settings: read-out: Activity
SR = assay: Anticancer activity against human SR cells assessed as cell growth at 10 uM incubated for 48 hrs by sulforhodamine B assay; type: functional; settings: read-out: Activity
[5] = Cytotoxicity against mouse NIH3T3 cells assessed as cell growth inhibition incubated for 72 hrs by MTT assay; type: toxicity, cell-based
BT-549 = assay: Anticancer activity against human BT-549 cells assessed as cell growth at 10 uM incubated for 48 hrs by sulforhodamine B assay; type: functional; settings: read-out: Activity
[6] = (§1) Cytotoxicity against human HaCaT cells assessed as cell growth inhibition incubated for 72 hrs by MTT assay; type: toxicity, cell-based; settings: HaCaT cells
HaCaT = assay: as §1; type: toxicity, cell-based; settings: hacat, 72 h
HCT-15 = assay: Anticancer activity against human HCT-15 cells assessed as cell growth at 10 uM incubated for 48 hrs by sulforhodamine B assay; type: functional; settings: read-out: Activity
SN12C = assay: Anticancer activity against human SN12C cells assessed as cell growth at 10 uM incubated for 48 hrs by sulforhodamine B assay; type: functional; settings: read-out: Activity
SK-MEL-28 = assay: Anticancer activity against human SK-MEL-28 cells assessed as cell growth at 10 uM incubated for 48 hrs by sulforhodamine B assay; type: functional; settings: read-out: Activity
UACC-257 = assay: Anticancer activity against human UACC-257 cells assessed as cell growth at 10 uM incubated for 48 hrs by sulforhodamine B assay; type: functional; settings: read-out: Activity
MDA-MB-435 = assay: Anticancer activity against human MDA-MB-435 cells assessed as cell growth at 10 uM incubated for 48 hrs by sulforhodamine B assay; type: functional; settings: read-out: Activity
M14 = assay: Anticancer activity against human M14 cells assessed as cell growth at 10 uM incubated for 48 hrs by sulforhodamine B assay; type: functional; settings: read-out: Activity
SF-295 = assay: Anticancer activity against human SF-295 cells assessed as cell growth at 10 uM incubated for 48 hrs by sulforhodamine B assay; type: functional; settings: read-out: Activity
NCI-H322M = assay: Anticancer activity against human NCI-H322M cells assessed as cell growth at 10 uM incubated for 48 hrs by sulforhodamine B assay; type: functional; settings: read-out: Activity
HOP-62 = assay: Anticancer activity against human HOP-62 cells assessed as cell growth at 10 uM incubated for 48 hrs by sulforhodamine B assay; type: functional; settings: read-out: Activity
OVCAR-5 = assay: Anticancer activity against human OVCAR-5 cells assessed as cell growth at 10 uM incubated for 48 hrs by sulforhodamine B assay; type: functional; settings: read-out: Activity
SNB-19 = assay: Anticancer activity against human SNB-19 cells assessed as cell growth at 10 uM incubated for 48 hrs by sulforhodamine B assay; type: functional; settings: read-out: Activity
A498 = assay: Anticancer activity against human A498 cells assessed as cell growth at 10 uM incubated for 48 hrs by sulforhodamine B assay; type: functional; settings: read-out: Activity
Malme-3M = assay: Anticancer activity against human Malme-3M cells assessed as cell growth at 10 uM incubated for 48 hrs by sulforhodamine B assay; type: functional; settings: read-out: Activity
OVCAR-8 = assay: Anticancer activity against human OVCAR-8 cells assessed as cell growth at 10 uM incubated for 48 hrs by sulforhodamine B assay; type: functional; settings: read-out: Activity
SK-MEL-5 = assay: Anticancer activity against human SK-MEL-5 cells assessed as cell growth at 10 uM incubated for 48 hrs by sulforhodamine B assay; type: functional; settings: read-out: Activity
HCC 2998 = assay: Anticancer activity against human HCC 2998 cells assessed as cell growth at 10 uM incubated for 48 hrs by sulforhodamine B assay; type: functional; settings: read-out: Activity
RXF 393 = assay: Anticancer activity against human RXF 393 cells assessed as cell growth at 10 uM incubated for 48 hrs by sulforhodamine B assay; type: functional; settings: read-out: Activity

Structure (SMILES)	IC50 (K562)	IC50 (MCF7)	Activity (Salmon testes DNA)	IC50 [1]	IC50 (KB 3-1)	IC50 at 72 h [2]	IC50 (HCT-116)	IC50 at 72 h [5]	IC50 at 72 h [6]	other results
O=C1C2=C(C(=O)c3c(O)cccc31)C(/C=C/c1ccccc1)c1sc(=O)[nH]c1S2 (stereo unspecified)	28.4 µM	7.41 µM	11.8%	43.7 µM	46.4 µM	7.44 µM	35.6 µM	–	–	–
O=C1C=CC(=O)c2c(O)cccc21 [JUGLONE]	–	–	–	–	26.4 µM	13.4 µM	31.6 µM	–	–	Activity [3]: Active; Activity [4]: Active
O=C1C2=C(C(=O)c3c(O)cccc31)C(c1ccc(Cl)cc1)c1sc(=O)[nH]c1S2 (stereo unspecified)	19.2 µM	7.5 µM	29.5%	3.1 µM	3.33 µM	5.27 µM	4.12 µM	46.6 µM	> 50 µM	growth at 10 µM (SF-539): 35.1%; growth at 10 µM (UO-31): 39.8%; growth at 10 µM (CAKI-1): 36.7%; growth at 10 µM (SR): 38.6%; growth at 10 µM (BT-549): 39.5%
O=C1C2=C(C(=O)c3ccccc31)C(c1ccco1)c1sc(=O)[nH]c1S2 (stereo unspecified)	30.9 µM	29 µM	11.8%	6.28 µM	5.54 µM	6.77 µM	5.44 µM	38.9 µM	–	Activity (HaCaT): Non-Toxic
O=C1C2=C(C(=O)c3c(O)cccc31)C(c1ccc(Br)cc1)c1sc(=O)[nH]c1S2 (stereo unspecified)	6.31 µM	31.2 µM	29.5%	3.82 µM	2.74 µM	2.03 µM	4.7 µM	30.4 µM	> 50 µM	–
O=C1C2=C(C(=O)c3c(O)cccc31)C(c1cccs1)c1sc(=O)[nH]c1S2 (stereo unspecified)	21.5 µM	24.1 µM	66.4%	5.36 µM	4.53 µM	6.81 µM	5.13 µM	39.1 µM	–	growth at 10 µM (SF-539): -99.5%; growth at 10 µM (UO-31): -92.9%; growth at 10 µM (HCT-15): -91.4%; growth at 10 µM (SN12C): -92.8%; growth at 10 µM (SK-MEL-28): -97.2%; growth at 10 µM (UACC-257): -93.1%; growth at 10 µM (MDA-MB-435): -90.2%; growth at 10 µM (M14): -96.7%; growth at 10 µM (SF-295): -93.5%; growth at 10 µM (NCI-H322M): -96.8%; growth at 10 µM (HOP-62): -94.3%; growth at 10 µM (OVCAR-5): -93%; growth at 10 µM (SNB-19): -99.5%; growth at 10 µM (A498): -98.7%; growth at 10 µM (BT-549): -99.9%; growth at 10 µM (Malme-3M): -99.4%; growth at 10 µM (OVCAR-8): -94.6%; growth at 10 µM (SK-MEL-5): -96.9%; growth at 10 µM (HCC 2998): -96.8%; growth at 10 µM (RXF 393): -97.4%
O=C1C2=C(C(=O)c3c(O)cccc31)C(c1cc(Cl)ccc1O)c1sc(=O)[nH]c1S2 (stereo unspecified)	11.8 µM	9.34 µM	29.5%	3.86 µM	3.64 µM	5.25 µM	0.75 µM	37 µM	> 50 µM	–
O=C1NC(=S)/C(=C/c2ccco2)S1	–	–	–	–	–	–	–	–	–	Activity [3]: Active; Activity [4]: Active
CC1(C)C2=C(Sc3[nH]c(=O)sc31)C(=O)c1cccc(O)c1C2=O	26.8 µM	9.48 µM	42.5%	36.2 µM	23.4 µM	26.4 µM	12.9 µM	> 50 µM	> 50 µM	–
CN(C)c1ccc(C2C3=C(Sc4[nH]c(=O)sc42)C(=O)c2cccc(O)c2C3=O)cc1 (stereo unspecified)	22.9 µM	> 50 µM	55.4%	8.83 µM	7.21 µM	26.9 µM	6.15 µM	> 50 µM	> 50 µM	–
C/C(=C\c1ccccc1)C1C2=C(Sc3[nH]c(=O)sc31)C(=O)c1cccc(O)c1C2=O (stereo unspecified)	33 µM	> 50 µM	29.5%	41.7 µM	47.5 µM	30.8 µM	40.6 µM	–	–	–
O=C1C2=C(C(=O)c3c(O)cccc31)C(/C=C/c1ccccc1[N+](=O)[O-])c1sc(=O)[nH]c1S2 (stereo unspecified)	15.7 µM	0.95 µM	53.2%	2.16 µM	6.94 µM	0.83 µM	0.94 µM	–	–	–
COc1ccc(C2C3=C(Sc4[nH]c(=O)sc42)C(=O)c2cccc(O)c2C3=O)cc1 (stereo unspecified)	5.66 µM	6.1 µM	29.5%	3.26 µM	0.87 µM	2.95 µM	3.19 µM	6.78 µM	40.8 µM	–
O=C1C2=C(C(=O)c3c(O)cccc31)C(CCc1ccccc1)c1sc(=O)[nH]c1S2 (stereo unspecified)	> 50 µM	> 50 µM	11.8%	> 50 µM	> 50 µM	> 50 µM	> 50 µM	–	–	–
